# According to publication PMC7377239, “Cardiovascular Effects of Polychlorinated Biphenyls and Their Major Metabolites” (Environmental Health Perspectives, 2020):
# Like-named read-outs stand apart in the source and are kept apart here.
# Experiments:
# [1] = tested on: iCell endothelial cells (human iPSC-derived ECs); assay: Tube formation (tubulogenesis) assay in iCell endothelial cells, 18 h; format: cell-based; settings: Homo sapiens, Endothelial cell, iPSC-EC; for activity at 0.1 µM: 0.10 µM; for minimal effective concentration: 100.00 = highest concentration tested
# Procedure, shortened: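 iCell ECs (passages 1–5) seeded 7,500 cells/well on reduced-growth-factor Geltrex in starvation medium, exposed overnight at 37°C to compounds in triplicate concentration–response (0.5% DMSO vehicle). Calcein AM staining, 4× imaging, angiogenesis image analysis; readouts normalized to vehicle, four-parameter logistic fit, POD at 1 SD of vehicle; 100 μM assigned NOAEL if no response.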
# [2] = tested on: HUVECs; assay: High-content imaging cytotoxicity in HUVECs, 24 h; format: cell-based, human; settings: Homo sapiens, HUVEC, 24 h, HUVECs; for viability at 0.01 µM / activity at 0.01 µM: concentration 0.01 µM; for viability at 0.01 µM / activity at 0.01 µM / viability at 0.1 µM / activity at 0.1 µM / viability at 1 µM / activity at 1 µM / viability at 10 µM / activity at 10 µM / viability at 100 µM / activity at 100 µM: 0.00 µM = 100.00; for viability at 0.1 µM / activity at 0.1 µM: concentration 0.10 µM; for viability at 1 µM / activity at 1 µM: concentration 1.00 µM; for viability at 10 µM / activity at 10 µM: concentration 10.00 µM; for viability at 100 µM / activity at 100 µM: concentration 100.00 µM; for minimal effective concentration: MAX 100.00
# Procedure, shortened: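 HUVECs (passages 1–5) grown to monolayer over 3–5 d, then exposed 24 h at 37°C, 5% CO2; stained with Hoechst 33342, MitoTracker Orange and calcein AM and imaged at 10×. Readouts normalized to 0.5% DMSO vehicle, four-parameter logistic fit; POD at one-SD cutoff, 100μM assigned when no response.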
# [3] = 0.00 µM = 100.00, read-out: endo.mtl.18hr
# [4] = 0.00 µM = 100.00, read-out: endo.tlps.18hr
# [5] = 0.00 µM = 100.00, read-out: endo.tta.18hr
# [6] = 0.00 µM = 100.00, read-out: endo.ttl.18hr
# [7] = 24 hr, read-out: huvec.cyto.24hr
# [8] = 24 hr, read-out: huvec.mito.24hr
# [9] = 24 hr, read-out: huvec.mitoint.24hr
# [10] = 24 hr, read-out: huvec.nma.24hr
# [11] = 24 hrs, read-out: huvec.tc.24hrs
smiles,measurement,setting,value
COc1cc(Cl)c(-c2cc(Cl)ccc2Cl)cc1Cl [4-OMe PCB52],activity at 0.01 µM,[1]; [3],120%
same,activity at 0.01 µM,[1]; [4],104%
same,activity at 0.01 µM,[1]; [5],141%
same,activity at 0.01 µM,[1]; [6],150%
same,activity at 0.1 µM,[1]; [3],112%
same,activity at 0.1 µM,[1]; [4],113%
same,activity at 0.1 µM,[1]; [5],116%
same,activity at 0.1 µM,[1]; [6],123%
same,activity at 1 µM,[1]; [3],119%
same,activity at 1 µM,[1]; [4],114%
same,activity at 1 µM,[1]; [5],121%
same,activity at 1 µM,[1]; [6],132%
same,activity at 10 µM,[1]; [3],114%
same,activity at 10 µM,[1]; [4],131%
same,activity at 10 µM,[1]; [5],136%
same,activity at 10 µM,[1]; [6],142%
same,activity at 100 µM,[1]; [3],49.4%
same,activity at 100 µM,[1]; [4],15.9%
same,activity at 100 µM,[1]; [5],6.4%
same,activity at 100 µM,[1]; [6],8.34%
same,minimal effective concentration,[1]; read-out: endo.mtl.18hr POD,52 µM
same,minimal effective concentration,[1]; read-out: endo.tlps.18hr POD,56 µM
same,minimal effective concentration,[1]; read-out: endo.tta.18hr POD,51.6 µM
same,minimal effective concentration,[1]; read-out: endo.ttl.18hr POD,54.7 µM
same,viability at 0.01 µM,[2]; [7],105%
same,activity at 0.01 µM,[2]; [8],105%
same,activity at 0.01 µM,[2]; [9],107%
same,activity at 0.01 µM,[2]; [10],98.6%
same,viability at 0.1 µM,[2]; [7],102%
same,activity at 0.1 µM,[2]; [8],102%
same,activity at 0.1 µM,[2]; [9],114%
same,activity at 0.1 µM,[2]; [10],99.1%
same,viability at 1 µM,[2]; [7],85.9%
same,activity at 1 µM,[2]; [8],85.8%
same,activity at 1 µM,[2]; [9],113%
same,activity at 1 µM,[2]; [10],104%
same,viability at 10 µM,[2]; [7],57.8%
same,activity at 10 µM,[2]; [8],31.1%
same,activity at 10 µM,[2]; [9],11.1%
same,activity at 10 µM,[2]; [10],54.2%
same,viability at 100 µM,[2]; [7],60%
same,activity at 100 µM,[2]; [8],23%
same,activity at 100 µM,[2]; [9],13.4%
same,activity at 100 µM,[2]; [10],63.6%
same,minimal effective concentration,"[2]; 24 hr, read-out: huvec.cyto.24hr POD",0.78 µM
same,minimal effective concentration,"[2]; 24 hr, read-out: huvec.mito.24hr POD",0.55 µM
same,minimal effective concentration,"[2]; 24 hr, read-out: huvec.mitoint.24hr POD",2.69 µM
same,minimal effective concentration,"[2]; 24 hr, read-out: huvec.nma.24hr POD",2.36 µM
same,viability at 0.01 µM,[2]; [11],105%
same,viability at 0.1 µM,[2]; [11],102%
same,viability at 1 µM,[2]; [11],85.9%
same,viability at 10 µM,[2]; [11],57.9%
same,viability at 100 µM,[2]; [11],60%
same,minimal effective concentration,"[2]; 24 hrs, read-out: huvec.tc.24hrs POD",0.78 µM
